# System: 485176-168-R4-J1-PDC complex spheroid growth
# Experiment: Anticancer human tumor 485176-168-R4-J1-PDC patient-derived pancreatic adenocarcinoma cell line growth inhibition [RAS]
# Details: for viability, T/C: stronger effect = lower value
# Text: RAS pathway inhibitors in Combinations in Complex Spheroids
# A high-throughput screen of multi-cell type tumor spheroids was designed to identify active combinations of RAS pathway inhibitors and targeted small molecules. Complex spheroids include a stromal component modeled by human endothelial cells (HUVEC) and fibroblasts modeled by human mesenchymal stem cells (MSCs). The concentration ranges selected for each drug and investigational agent were based upon clinically achievable concentrations if the clinical Cmax of the agent was known.
# Compounds. The drugs and investigational agents: abemaciclib (NSC768073), cobimetinib (NSC768068), divarasib (GDC6063, NSC841802), docetaxel (NSC628503), GDC-1971 (RLY-1971, NSC841576), gemcitabine (NSC613327), inavolisib (NSC800729), ipatasertib (NSC767898), KB-0742 (NSC834161), MRTX-1133 (NSC836407), osimertinib (NSC779217), RMC-4630 (NSC839698), RMC-6236 (NSC851965), RMC-6291 (NSC852671), Ro-3306 (NSC812927), sapanisertib (NSC764658), SN-38 (NSC673596), staurosporine (NSC755774), SY5609 (NSC837396), and tovorafenib (DAY101, NSC766906), were obtained from the National Cancer Institute (NCI) Developmental Therapeutics Program Chemical Repository. The FDA-approved anticancer drug set is available from the NCI Developmental Therapeutics Program. […] The stock solutions were prepared in dimethyl sulfoxide (DMSO, Sigma-Aldrich, St. Louis, MO, cat. D2650) at 800-fold the tested concentration and stored at -70 degrees C prior to their use. All drugs and investigational agents were tested over a range starting from a high concentration at or near the clinical Cmax and decreasing in half-log increments. If the clinical Cmax for an agent had not been determined, the highest concentration tested was 10 microM.
# Cell Culture. All cells were maintained in an incubator at 37 degrees C and 5% CO2 with 95% humidity. The PDC lines were cultured according to standard operating procedures established by the NCI PDMR. All PDCs were thawed and cultured in Matrigel-coated flasks prepared with a working solution of 1X Ham's F-12 nutrient mix, without supplementation (Invitrogen, Waltham, MA, cat. 11765054), 100 U/mL penicillin-streptomycin (Invitrogen, cat. 15140122), and 2.5% Matrigel (Corning Inc., Corning, NY, cat. 354248) for the first three passages. The 362531-283-R-J2-PDC and 782815-120-R-J1-PDC lines were cultured in 6C/Colon 1B media, which includes advanced DMEM/F-12 (Thermo Fisher Scientific, cat. 12634028), 10 mM HEPES (Thermo Fisher Scientific, cat. 15630080), 1X GlutaMAX supplement (Thermo Fisher Scientific, cat. 35050061), 0.1 mg/mL primocin (InvivoGen, San Diego, CA, cat. ant-pm-2), 10% defined fetal bovine serum, heat inactivated (HyClone Laboratories Inc., Logan, UT, cat. SH30070.03HI), 50% L-WRN conditioned media (ATCC, cat. CRL-3276), 1.25 mM N-Acetyl-L-cysteine (Sigma-Aldrich, cat. A9165), 10 mM nicotinamide (Sigma-Aldrich, cat. N0636), 1X B-27 supplement (Thermo Fisher Scientific, cat. 17504044), 1X N-2 supplement (Thermo Fisher Scientific, cat. 17502048), 50 ng/mL human EGF (Thermo Fisher Scientific, cat. PHG0311), and 10 microM Y-27632 dihydrochloride (Tocris Bioscience, cat. 1254). The K12877-001-R-J1-PDC line was cultured in 6I media, which includes all 6C/Colon 1B media plus 10 ng/mL human FGF-10 (PeproTech, cat. 100-26), 1 ng/mL human FGF-2 (PeproTech, cat. 100-18B), 1 µM prostaglandin E2 (Tocris Bioscience, cat. 2296), […] hydrocortisone (Sigma-Aldrich, cat. H4001), and […] bovine insulin (Sigma-Aldrich, cat. I6634). The K86415-001-R-J1-PDC line was cultured in 6D media, which includes all 6C/Colon 1B media components minus the L-WRN conditioned media. The 485176-168-R4-J1-PDC was cultured in PANC media, which includes all 6C/Colon 1B media plus 100 ng/mL human FGF-10 (PeproTech, cat. 100-26), 500 nM SB-431542 (Selleckchem, cat. S1067), and 10 nM gastrin (Tocris Bioscience, cat. 3006). […]
# [1] = curve of first compound, second compound 0.0316 µM
# [2] = curve of first compound, second compound 0.1 µM
# [3] = curve of first compound, second compound 0.316 µM
# [4] = curve of first compound, second compound 1 µM
# [5] = curve of first compound, second compound 3.16 µM
# [6] = curve of first compound, second compound 10 µM
# [7] = second compound 0.0316 µM, first compound 0.00316 µM
# [8] = second compound 0.0316 µM, first compound 0.01 µM
# [9] = second compound 0.0316 µM, first compound 0.0316 µM
# [10] = second compound 0.0316 µM, first compound 0.1 µM
# [11] = second compound 0.0316 µM, first compound 0.316 µM
# [12] = second compound 0.0316 µM, first compound 1 µM
# [13] = second compound 0.1 µM, first compound 0.00316 µM
# [14] = second compound 0.1 µM, first compound 0.01 µM
# [15] = second compound 0.1 µM, first compound 0.0316 µM
# [16] = second compound 0.1 µM, first compound 0.1 µM
# [17] = second compound 0.1 µM, first compound 0.316 µM
# [18] = second compound 0.1 µM, first compound 1 µM
# [19] = second compound 0.316 µM, first compound 0.00316 µM
# [20] = second compound 0.316 µM, first compound 0.01 µM
# [21] = second compound 0.316 µM, first compound 0.0316 µM
# [22] = second compound 0.316 µM, first compound 0.1 µM
# [23] = second compound 0.316 µM, first compound 0.316 µM
# [24] = second compound 0.316 µM, first compound 1 µM
# [25] = second compound 1 µM, first compound 0.00316 µM
# [26] = second compound 1 µM, first compound 0.01 µM
# [27] = second compound 1 µM, first compound 0.0316 µM
# [28] = second compound 1 µM, first compound 0.1 µM
# [29] = second compound 1 µM, first compound 0.316 µM
# [30] = second compound 1 µM, first compound 1 µM
# [31] = second compound 3.16 µM, first compound 0.00316 µM
# [32] = second compound 3.16 µM, first compound 0.01 µM
# [33] = second compound 3.16 µM, first compound 0.0316 µM
# [34] = second compound 3.16 µM, first compound 0.1 µM
# [35] = second compound 3.16 µM, first compound 0.316 µM
# [36] = second compound 3.16 µM, first compound 1 µM
# [37] = second compound 10 µM, first compound 0.00316 µM
# [38] = second compound 10 µM, first compound 0.01 µM
# [39] = second compound 10 µM, first compound 0.0316 µM
# [40] = second compound 10 µM, first compound 0.1 µM
# [41] = second compound 10 µM, first compound 0.316 µM
# [42] = second compound 10 µM, first compound 1 µM
# 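Note: spheroids exposed to compounds for seven days before readout.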
# 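Throughout, for viability, T/C: luminescence viability expressed relative to DMSO vehicle wells set as 100%.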
smiles,measurement,setting,value
C#Cc1c(F)ccc2cc(O)cc(-c3ncc4c(N5CC6CCC(C5)N6)nc(OCC56CCCN5CC(F)C6)nc4c3F)c12 (stereo unspecified),"viability, T/C",compound 0.1 µM,102% [middle of 8 runs]
same,"viability, T/C",compound 0.316 µM,97.6% [middle of 8 runs]
same,"viability, T/C",compound 1 µM,94% [middle of 8 runs]
same,"viability, T/C",compound 3.16 µM,99.5% [middle of 8 runs]
same,"viability, T/C",compound 10 µM,95.7% [middle of 8 runs]
same,IC50,"compound alone, run of 06/10/2024",> 10000 nM
NC1c2ccccc2OC12CCN(c1cnc3c(N4CCCc5ncccc54)n[nH]c3n1)CC2 (stereo unspecified),"viability, T/C",compound 0.1 µM,79.2% [middle of 4 runs]
same,"viability, T/C",compound 0.316 µM,86.1% [middle of 4 runs]
same,"viability, T/C",compound 1 µM,85.1% [middle of 4 runs]
same,"viability, T/C",compound 3.16 µM,84.5% [middle of 4 runs]
same,"viability, T/C",compound 10 µM,72.2% [middle of 4 runs]
same,IC50,curve of compound,> 10000 nM
C=CC(=O)Nc1cc(Nc2nccc(-c3cn(C)c4ccccc34)n2)c(OC)cc1N(C)CCN(C)C + C#Cc1c(F)ccc2cc(O)cc(-c3ncc4c(N5CC6CCC(C5)N6)nc(OCC56CCCN5CC(F)C6)nc4c3F)c12,IC50,[1],> 1000 nM
same,IC50,[2],> 1000 nM
same,IC50,[3],> 1000 nM
same,IC50,[4],> 1000 nM
same,IC50,[5],> 1000 nM
same,IC50,[6],> 1000 nM
same,"viability, T/C",[7],103%
same,"viability, T/C",[8],90.8%
same,"viability, T/C",[9],99%
same,"viability, T/C",[10],80.7%
same,"viability, T/C",[11],88.9%
same,"viability, T/C",[12],66.7%
same,"viability, T/C",[13],115%
same,"viability, T/C",[14],109%
same,"viability, T/C",[15],92.7%
same,"viability, T/C",[16],92.9%
same,"viability, T/C",[17],86.6%
same,"viability, T/C",[18],66.8%
same,"viability, T/C",[19],82.5%
same,"viability, T/C",[20],83.1%
same,"viability, T/C",[21],99%
same,"viability, T/C",[22],100%
same,"viability, T/C",[23],88.4%
same,"viability, T/C",[24],62.3%
same,"viability, T/C",[25],95.8%
same,"viability, T/C",[26],80.8%
same,"viability, T/C",[27],91%
same,"viability, T/C",[28],96.1%
same,"viability, T/C",[29],85.2%
same,"viability, T/C",[30],64.4%
same,"viability, T/C",[31],106%
same,"viability, T/C",[32],89.5%
same,"viability, T/C",[33],96.7%
same,"viability, T/C",[34],75.6%
same,"viability, T/C",[35],70.7%
same,"viability, T/C",[36],68.5%
same,"viability, T/C",[37],100%
same,"viability, T/C",[38],86.6%
same,"viability, T/C",[39],85.3%
same,"viability, T/C",[40],103%
same,"viability, T/C",[41],84%
same,"viability, T/C",[42],61.9%
O=C(c1ccc(F)c(F)c1Nc1ccc(I)cc1F)N1CC(O)([C@@H]2CCCCN2)C1 + C#Cc1c(F)ccc2cc(O)cc(-c3ncc4c(N5CC6CCC(C5)N6)nc(OCC56CCCN5CC(F)C6)nc4c3F)c12,IC50,[1],358 nM
same,IC50,[2],267 nM
same,IC50,[3],231 nM
same,IC50,[4],31 nM
same,IC50,[5],88.8 nM
same,IC50,[6],53.9 nM
same,"viability, T/C",[7],80.3%
same,"viability, T/C",[8],79.3%
same,"viability, T/C",[9],69.7%
same,"viability, T/C",[10],72.4%
same,"viability, T/C",[11],50.5%
same,"viability, T/C",[12],41.1%
same,"viability, T/C",[13],79%
same,"viability, T/C",[14],82.2%
same,"viability, T/C",[15],72.6%
same,"viability, T/C",[16],62.5%
same,"viability, T/C",[17],48.2%
same,"viability, T/C",[18],37.5%
same,"viability, T/C",[19],88%
same,"viability, T/C",[20],72.3%
same,"viability, T/C",[21],71.1%
same,"viability, T/C",[22],56%
same,"viability, T/C",[23],45.4%
same,"viability, T/C",[24],41%
same,"viability, T/C",[25],96%
same,"viability, T/C",[26],77.7%
same,"viability, T/C",[27],49.5%
same,"viability, T/C",[28],47.3%
same,"viability, T/C",[29],58.2%
same,"viability, T/C",[30],38.9%
same,"viability, T/C",[31],90.4%
same,"viability, T/C",[32],86.4%
same,"viability, T/C",[33],64.4%
same,"viability, T/C",[34],50.6%
same,"viability, T/C",[35],38.3%
same,"viability, T/C",[36],39.2%
same,"viability, T/C",[37],98.3%
same,"viability, T/C",[38],60.1%
same,"viability, T/C",[39],57.8%
same,"viability, T/C",[40],51%
same,"viability, T/C",[41],46.8%
same,"viability, T/C",[42],29.9%
